Legend:
Type in all cases: in vivo
[1] = tested on: barnyardgrass (Echinochloa crus-galli); experiment: Test B flooded paddy; details: Echinochloa crus-galli, 336 h; 250 g ai/ha, Flood, 13 to 15 days, scale 0 (no effect) to 100 (complete control); read-out: Plant response rating, Barnyardgrass
How it was run: (§1)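 Flooded 3 cm over soil; compound into paddy water; depth kept constant. Greenhouse 13–15 d.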

[2] = tested on: ducksalad (Heteranthera limosa); experiment: Test B flooded paddy; details: Heteranthera limosa, 336 h; 250 g ai/ha, Flood, 13 to 15 days, scale 0 (no effect) to 100 (complete control); read-out: Plant response rating, Ducksalad
How it was run: as §1

[3] = tested on: rice (Oryza sativa); experiment: Test B flooded paddy; details: Oryza sativa, 336 h; 250 g ai/ha, Flood, 13 to 15 days, scale 0 (no effect) to 100 (complete control); read-out: Plant response rating, Rice
How it was run: as §1

[4] = tested on: sedge, umbrella (small-flower umbrella sedge, Cyperus difformis); experiment: Test B flooded paddy; details: Cyperus difformis, 336 h; 250 g ai/ha, Flood, 13 to 15 days, scale 0 (no effect) to 100 (complete control); read-out: Plant response rating, Sedge, Umbrella
How it was run: as §1

[5] = tested on: Italian ryegrass (Lolium multiflorum); experiment: Test A preemergence; details: Lolium multiflorum, pre-emergence, 240 h
How it was run: (§2)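 Compounds in non-phytotoxic solvent with surfactant applied as soil spray preemergence, or postemergence to plants 2-10 cm at one- to two-leaf stage, in loam/sand. After approximately 10 days in greenhouse, injury rated visually versus untreated controls, 0 (no effect) to 100 (complete control).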

[6] = tested on: barnyardgrass (Echinochloa crus-galli); experiment: Test A preemergence; details: Echinochloa crus-galli, pre-emergence, 240 h
How it was run: as §2

[7] = tested on: giant foxtail (Setaria faberii); experiment: Test A preemergence; details: Setaria faberi, pre-emergence, 240 h
How it was run: as §2

[8] = tested on: kochia (Kochia scoparia); experiment: Test A preemergence; details: Bassia scoparia, pre-emergence, 240 h
How it was run: as §2

[9] = tested on: pigweed (Amaranthus retroflexus); experiment: Test A preemergence; details: Amaranthus retroflexus, pre-emergence, 240 h
How it was run: as §2

[10] = tested on: ragweed (common ragweed, Ambrosia elatior); experiment: Test A preemergence; details: Ambrosia artemisiifolia, pre-emergence, 240 h
How it was run: as §2

[11] = tested on: Italian ryegrass (Lolium multiflorum); experiment: Test A postemergence; details: Lolium multiflorum, post-emergence, 240 h, 0 to 100 scale, read-out: Plant response rating, Ryegrass, Italian
How it was run: as §2

[12] = tested on: barnyardgrass (Echinochloa crus-galli); experiment: Test A postemergence; details: Echinochloa crus-galli, post-emergence, 240 h, 0 to 100 scale, read-out: Plant response rating, Barnyardgrass
How it was run: as §2

[13] = tested on: blackgrass (Alopecurus myosuroides); experiment: Test A postemergence; details: Alopecurus myosuroides, post-emergence, 240 h, 0 to 100 scale, read-out: Plant response rating, Blackgrass
How it was run: as §2

[14] = tested on: corn (Zea mays); experiment: Test A postemergence; details: Zea mays, post-emergence, 240 h, 0 to 100 scale
How it was run: as §2

[15] = tested on: galium (catchweed bedstraw, Galium aparine); experiment: Test A postemergence; details: Galium, post-emergence, 240 h, 0 to 100 scale, read-out: Plant response rating, Galium
How it was run: as §2

[16] = tested on: giant foxtail (Setaria faberii); experiment: Test A postemergence; details: Setaria faberi, post-emergence, 240 h, 0 to 100 scale, read-out: Plant response rating, Foxtail, Giant
How it was run: as §2

[17] = tested on: kochia (Kochia scoparia); experiment: Test A postemergence; details: Bassia scoparia, post-emergence, 240 h, 0 to 100 scale, read-out: Plant response rating, Kochia
How it was run: as §2

[18] = tested on: pigweed (Amaranthus retroflexus); experiment: Test A postemergence; details: Amaranthus retroflexus, post-emergence, 240 h, 0 to 100 scale, read-out: Plant response rating, Pigweed
How it was run: as §2

[19] = tested on: ragweed (common ragweed, Ambrosia elatior); experiment: Test A postemergence; details: Ambrosia artemisiifolia, post-emergence, 240 h, 0 to 100 scale, read-out: Plant response rating, Ragweed
How it was run: as §2

[20] = tested on: wheat (Triticum aestivum); experiment: Test A postemergence; details: Triticum aestivum, post-emergence, 240 h, 0 to 100 scale, read-out: Plant response rating, Wheat
How it was run: as §2

[21] = tested on: galium (catchweed bedstraw, Galium aparine); experiment: Test C preemergence; details: Galium, pre-emergence, 336 h, scale 0 to 100, read-out: Plant response rating, Galium
How it was run: (§3)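 Visual ratings (0 none to 100 complete control) were made 13 to 15 days after treatment, relative to controls. Test chemicals, formulated in a non-phytotoxic solvent mixture with surfactant, were applied in the greenhouse preemergence to seeded loam-sand soil or postemergence to plants 2 to 18 cm tall.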

[22] = tested on: lambsquarters (Chenopodium album); experiment: Test C preemergence; details: Chenopodium album, pre-emergence, 336 h, scale 0 to 100, read-out: Plant response rating, Lambsquarters
How it was run: as §3

[23] = tested on: yellow nutsedge (Cyperus esculentus); experiment: Test C preemergence; details: Cyperus, pre-emergence, 336 h, scale 0 to 100, read-out: Plant response rating, Nutsedge, Yellow
How it was run: as §3

## Fc1cccc(Oc2ncc(C(F)(F)F)cn2)c1Oc1ncc(Cl)cn1 [Compound 42, 5-chloro-2-[2-fluoro-6-[[5-(trifluoromethyl)-2-pyrimidinyl]oxy]phenoxy]pyrimidine]
[1]
  pest or weed control at 250 g/ha: 100%
[2]
  pest or weed control at 250 g/ha: 100%
[3]
  plant injury at 250 g/ha: 80%
[4]
  pest or weed control at 250 g/ha: 100%
[5]; 125 g ai/ha, 0 to 100 scale (0 no effect, 100 complete control), read-out: Ryegrass, Italian plant response rating
  pest or weed control at 125 g/ha: 60%
[5]; 500 g ai/ha, 0 to 100 scale, read-out: Plant response rating, Ryegrass, Italian
  pest or weed control at 500 g/ha: 100%
[6]; 125 g ai/ha, 0 to 100 scale (0 no effect, 100 complete control), read-out: Barnyardgrass plant response rating
  pest or weed control at 125 g/ha: 100%
[6]; 500 g ai/ha, 0 to 100 scale, read-out: Plant response rating, Barnyardgrass
  pest or weed control at 500 g/ha: 100%
[7]; 125 g ai/ha, 0 to 100 scale (0 no effect, 100 complete control), read-out: Foxtail, Giant plant response rating
  pest or weed control at 125 g/ha: 100%
[7]; 500 g ai/ha, 0 to 100 scale, read-out: Plant response rating, Foxtail, Giant
  pest or weed control at 500 g/ha: 100%
[8]; 125 g ai/ha, 0 to 100 scale (0 no effect, 100 complete control), read-out: Kochia plant response rating
  pest or weed control at 125 g/ha: 100%
[8]; 500 g ai/ha, 0 to 100 scale, read-out: Plant response rating, Kochia
  pest or weed control at 500 g/ha: 100%
[9]; 125 g ai/ha, 0 to 100 scale (0 no effect, 100 complete control), read-out: Pigweed plant response rating
  pest or weed control at 125 g/ha: 100%
[9]; 500 g ai/ha, 0 to 100 scale, read-out: Plant response rating, Pigweed
  pest or weed control at 500 g/ha: 100%
[10]; 125 g ai/ha, 0 to 100 scale (0 no effect, 100 complete control), read-out: Ragweed plant response rating
  pest or weed control at 125 g/ha: 100%
[10]; 500 g ai/ha, 0 to 100 scale, read-out: Plant response rating, Ragweed
  pest or weed control at 500 g/ha: 100%
[11]; 125 g ai/ha
  pest or weed control at 125 g/ha: 100%
[11]; 500 g ai/ha
  pest or weed control at 500 g/ha: 100%
[12]; 125 g ai/ha
  pest or weed control at 125 g/ha: 100%
[12]; 500 g ai/ha
  pest or weed control at 500 g/ha: 100%
[13]; 125 g ai/ha
  pest or weed control at 125 g/ha: 90%
[13]; 500 g ai/ha
  pest or weed control at 500 g/ha: 100%
[14]; 125 g ai/ha
  Corn plant response rating (crop injury, 0 = no effect, 100 = complete kill) at 125 g/ha: 80%
[14]; 500 g ai/ha
  Corn plant response rating (crop injury, 0 = no effect, 100 = complete kill) at 500 g/ha: 100%
[15]; 125 g ai/ha
  pest or weed control at 125 g/ha: 100%
[15]; 500 g ai/ha
  pest or weed control at 500 g/ha: 100%
[16]; 125 g ai/ha
  pest or weed control at 125 g/ha: 100%
[16]; 500 g ai/ha
  pest or weed control at 500 g/ha: 100%
[17]; 125 g ai/ha
  pest or weed control at 125 g/ha: 100%
[17]; 500 g ai/ha
  pest or weed control at 500 g/ha: 100%
[18]; 125 g ai/ha
  pest or weed control at 125 g/ha: 100%
[18]; 500 g ai/ha
  pest or weed control at 500 g/ha: 100%
[19]; 125 g ai/ha
  pest or weed control at 125 g/ha: 70%
[19]; 500 g ai/ha
  pest or weed control at 500 g/ha: 100%
[20]; 125 g ai/ha
  plant injury at 125 g/ha: 80%
[20]; 500 g ai/ha
  plant injury at 500 g/ha: 100%
[21]; 31 g ai/ha, preemergence
  pest or weed control at 31 g/ha: 95%
[21]; 62 g ai/ha, preemergence
  pest or weed control at 62 g/ha: 95%
[21]; 125 g ai/ha, preemergence
  pest or weed control at 125 g/ha: 98%
[21]; Preemergence, 16 g ai/ha
  pest or weed control at 16 g/ha: 95%
[22]; 31 g ai/ha, preemergence
  pest or weed control at 31 g/ha: 100%
[22]; 62 g ai/ha, preemergence
  pest or weed control at 62 g/ha: 100%
[22]; 125 g ai/ha, preemergence
  pest or weed control at 125 g/ha: 100%
[22]; Preemergence, 16 g ai/ha
  pest or weed control at 16 g/ha: 100%
[23]; 31 g ai/ha, preemergence
  pest or weed control at 31 g/ha: 10%
[23]; 62 g ai/ha, preemergence
  pest or weed control at 62 g/ha: 50%
[23]; 125 g ai/ha, preemergence
  pest or weed control at 125 g/ha: 75%
[23]; Preemergence, 16 g ai/ha
  pest or weed control at 16 g/ha: 0%

Source: patent US20170190671A1, “BIS(ARYL)CATECHOL DERIVATIVES AS HERBICIDES” (E I DU PONT DE NEMOURS AND COMPANY, priority 2014, published 2017)
